Source: patent publication US10493077B2, “Fused imidazo-piperidine JAK inhibitor compound” (THERAVANCE BIOPHARMA R&D IP, LLC, priority 2017, dated 2019)

Columns and labels:
[1] = system: IL-2/anti-CD3 stimulated IFNγ in human PBMCs; experiment: Cellular JAK potency assay: inhibition of IL-2/anti-CD3 stimulated IFNγ in human PBMCs; type: cell-based; settings: PBMC, 24 h stimulation, read-out: pIC50, inhibition of IL-2/anti-CD3 stimulated IFNγ (converted)
Method: The potency of the test compound for inhibition of interleukin-2 (IL-2)/anti-CD3 stimulated interferon gamma (IFNγ) was measured in human peripheral blood mononuclear cells (PBMCs) isolated from human whole blood (Stanford Blood Center). Because IL-2 signals through JAK, this assay provides a measure of JAK cellular potency.
(1) Human peripheral blood mononuclear cells (PBMC) were isolated from human whole blood of healthy donors using a ficoll gradient. Cells were cultured in a 37° C., 5% CO2 humidified incubator in RPMI (Life Technologies) supplemented with 10% Heat Inactivated Fetal Bovine Serum (FBS, Life Technologies), 2 mM Glutamax (Life Technologies), 25 mM HEPES (Life Technologies) and 1× Pen/Strep (Life Technologies). Cells were seeded at 200,000 cells/well in media (50 μL) and cultured for 1 h. The compound was serially diluted in DMSO and then diluted another 500-fold (to a 2× final assay concentration) in media. […]
(2) After cytokine stimulation, cells were centrifuged at 500 g for 5 min and supernatants removed and frozen at −80° C. To determine the inhibitory potency of test compounds in response to IL-2/anti-CD3, supernatant IFNγ concentrations were measured via ELISA (R&D Systems). IC50 values were determined from analysis of the inhibition curves of concentration of IFNγ vs compound concentration. Data are expressed as pIC50 (negative decadic logarithm IC50) values.

[2] = system: IFNγ stimulated STAT1 phosphorylation in CD14+ monocytes; experiment: Cellular JAK potency assay: inhibition of IFNγ-induced pSTAT1 in CD14+ monocytes; type: cell-based; settings: Homo sapiens, Monocyte, read-out: pIC50, inhibition of IFNγ-induced pSTAT1 (converted)
Method: The potency of the test compound for inhibition of interferon gamma (IFNγ) stimulated STAT1 phosphorylation was measured in CD14-positive (CD14+) monocytes derived from human whole blood (Stanford Blood Center) using flow cytometry. Because IFNγ signals through JAK, this assay provides a measure of JAK cellular potency.
Monocytes were identified using a fluorescein isothiocyanate (FITC) conjugated anti-CD14 antibody (Clone RM052, Beckman Coulter), and an Alexa Fluor 647 conjugated anti-pSTAT1 antibody (pY701, Clone 4a, BD Biosciences) was used to detect STAT1 phosphorylation.
Human peripheral blood mononuclear cells (PBMC) were isolated from human whole blood of healthy donors using a ficoll gradient. […] Cells were washed twice with FACS buffer, and then resuspended in 1:10 anti-pSTAT1 Alexa Fluor 647:FACS buffer (100 μL) for 30 min at RT in the dark, washed twice in FACS buffer, and analyzed using a LSRII flow cytometer (BD Biosciences).
To determine the inhibitory potency of the test compound, the median fluorescent intensity (MFI) of pSTAT1 was measured in CD14+ monocytes. IC50 values were determined from analysis of the inhibition curves of MFI vs compound concentration. Data are expressed as pIC50 (negative decadic logarithm IC50) values.

PAK4 = target: T1, PAK4 (Homo sapiens, UniProt O96013); experiment: Kinome screen, PAK4; type: binding; settings: screened at 1 μM
T1 construct: made in house; host or cells: T7 phage in E. coli (BL21-derived) or HEK-293
Method: Kinase-tagged T7 phage strains were grown in parallel in 24-well blocks in an E. coli host derived from the BL21 strain. E. coli were grown to log-phase and infected with T7 phage from a frozen stock (multiplicity of infection=0.4) and incubated with shaking at 32° C. until lysis (90-150 minutes). The lysates were centrifuged (6,000×g) and filtered (0.2 μm) to remove cell debris. The remaining kinases were produced in HEK-293 cells and subsequently tagged with DNA for qPCR detection.
Streptavidin-coated magnetic beads were treated with biotinylated small molecule ligands for 30 minutes at room temperature to generate affinity resins for kinase assays. The liganded beads were blocked with excess biotin and washed with blocking buffer (SeaBlock (Pierce), 1% BSA, 0.05% Tween 20, 1 mM DTT) to remove unbound ligand and to reduce non-specific phage binding. […] Test compounds were prepared as 40× stocks in 100% DMSO and directly diluted into the assay. All reactions were performed in polypropylene 384-well plates in a final volume of 0.04 ml. […] The beads were then re-suspended in elution buffer (1×PBS, 0.05% Tween 20, 0.5 μM non-biotinylated affinity ligand) and incubated at room temperature with shaking for 30 minutes. The kinase concentration in the eluates was measured by qPCR.

T1 sequence (O96013 whole entry): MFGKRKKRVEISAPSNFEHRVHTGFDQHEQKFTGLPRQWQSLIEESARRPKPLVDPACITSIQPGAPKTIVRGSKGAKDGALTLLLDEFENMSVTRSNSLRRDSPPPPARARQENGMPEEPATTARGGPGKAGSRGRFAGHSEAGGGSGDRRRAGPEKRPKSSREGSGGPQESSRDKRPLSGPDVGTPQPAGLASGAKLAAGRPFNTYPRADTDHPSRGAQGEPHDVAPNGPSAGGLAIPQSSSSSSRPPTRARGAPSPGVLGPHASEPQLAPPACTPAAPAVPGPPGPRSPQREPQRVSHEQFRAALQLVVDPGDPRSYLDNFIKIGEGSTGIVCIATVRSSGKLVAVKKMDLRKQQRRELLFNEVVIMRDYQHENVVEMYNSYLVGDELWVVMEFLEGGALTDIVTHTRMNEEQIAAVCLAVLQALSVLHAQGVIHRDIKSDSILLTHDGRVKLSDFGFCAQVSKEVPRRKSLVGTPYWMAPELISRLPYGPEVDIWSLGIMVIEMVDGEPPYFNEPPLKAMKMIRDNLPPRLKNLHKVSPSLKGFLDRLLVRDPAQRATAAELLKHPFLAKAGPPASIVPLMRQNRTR

Question: With `CCc1cc(O)c(F)cc1-c1cc(F)c2c(-c3nc4c([nH]3)CCN(C(=O)CN3CCOCC3)C4)n[nH]c2c1` [Compound 1, 1-(2-(6-(2-ethyl-5-fluoro-4-hydroxyphenyl)-4-fluoro-1H-indazol-3-yl)-1,4,6,7-tetrahydro-5H-imidazo[4,5-c]pyridin-5-yl)-2-morpholinoethan-1-one] as the compound, how does the IC50 [1] read?
Answer: Its IC50 is about 200 nM.

Question: And the IC50 [2]?
Answer: The IC50 was about 79.4 nM.

Question: And the inhibition at 1 µM (PAK4)?
Answer: The inhibition at 1 µM was 93%.
